“Also recorded” adds a separate entry of the source.
Columns and labels:
Assay type in all cases: cell-based
[1] = system: Chlamydia trachomatis (Ctr) strain L2/434/Bu; test: microbe, parasite or virus in culture; settings: for protection against Ctr progeny infection at 75 μM (in words) / protection against Ctr progeny infection at 25 μM (in words): HeLa229; for protection against Ctr progeny infection at 75 μM (in words): FIG. 7 and Table 1; for inhibition at 25 µM / inhibition at 75 µM: Chlamydia trachomatis, HeLa 229, progeny infection, HeLa229, MOI1, versus solvent-treated cells; for inhibition at 25 µM: read-out: Cellular protection at 25 μM; for inhibition at 75 µM: read-out: Cellular protection at 75 μM; for protection against Ctr progeny infection at 25 μM (in words): Table 1
Description: HeLa229 (ATCC CCL-2.1). Cells were grown in RPMI1640 medium (Glutamax, 10% FBS, w/o HEPES) (Invitrogen).
(§1) Chlamydia trachomatis (Ctr). Laboratory-adapted strain L2/434/Bu (ATCC VR902B) was used in assays. Full biological and genetic information is available for this strain including complete genome sequence and defined proteome. This strain has a relatively low particle to infectivity ratio, perform efficient cell infection and has a higher viability than standard genital tract isolates with faster developmental cycle. Culture conditions have been described in (Wang Y., Kahane S., Cutcliffe L. T., Skilton R. J., Lambden P. R., Clarke I. N. Development of a transformation system for Chlamydia trachomatis: Restoration of glycogen biosynthesis by acquisition of a plasmid shuttle vector. PLoS Pathogen, 2011, 7(9):e1002258. doi: 10.1371/journal.ppat.1002258).
Compound application during Chlamydia trachomatis infection. HeLa229 cells were pretreated with compound #20 and its derivatives in concentrations of 25 μM and 75 μM for 1 hour until Chlamydia trachomatis (MOI1) were added to the cells. Compounds were present during infection. To obtain progeny infection, compound treated cells were lysed 24 h post infection (hpi) and lysate was used to infect fresh HeLa 229 cells.
Infected cells of progeny infection were fixed with 4% Paraformaldehyde 48 hpi. Cells were stained for DAPI and Chlamydia trachomatis were detected by GFP-signal. Images are representative of n=2 independent experiments. Quantification of infected cells by Chlamydia trachomatis was realized from microscopy images with Image J software (FIG. 7) and cellular protection by compounds at 25 μM and 75 μM was then determined (Table 1) by comparison with solvent-treated cells (control) with the following equation: […]

[2] = system: Simkania negevensis (Sn) strain Z; test: Sn infectivity assays (primary and progeny infection) in HeLa229 cells
Description: Simkania negevensis (Sn) strain Z (ATCC VR-1471) was prepared as described previously (Mehlitz A, Karunakaran K, Herweg J A, Krohne G, van de Linde S, Rieck E, Sauer M, Rudel T. The chlamydial organism Sn forms ER vacuole contact sites and inhibits ER-stress. Cell Microbiol 2014; 16(8):1224-1243).
Briefly, HeLa229 cells were grown to 50-70% confluence, were inoculated with Sn in RPMI1640 with 5% FBS, for 6 h at 35° C. in a humidified incubator at 5% CO2. Medium was replaced by infection medium (RPMI1640, Glutamax, 5% FBS, w/o HEPES) and growth was allowed for 3 days. Cells were mechanically detached and bacteria were released using ˜2-5 mm glass beads (Carl Roth). Low speed supernatant (600×g, 4° C. and 5 min) was subjected to high-speed centrifugation (20,000×g, 4° C. and 30 min) to pellet bacteria. Bacteria were washed twice with 5 ml SPG (250 mM sucrose, 50 mM sodium phosphate, 5 mM glutamate, pH 7.4), aliquoted and stored at '80° C. in SPG.
40,000 HeLa cells were seeded in 12-well cluster plates, inhibitor-treated and infected as indicated in the respective experiment.
For infectivity assays cells were either fixed and stained at indicated time points (FIGS. 2,4; inclusion formation/primary infection) or bacteria were released via one freeze thaw cycle (−70° C./37° C.) followed by mechanical release through pipetting and transfer to fresh HeLa229 cells (1:25-1:50, progeny/infectivity). Cells were centrifuged for 1 h at 35° C. and medium exchanged to infection medium. Progeny was fixed at day 3 post infection and processed for staining (FIG. 3) or harvested for immunoblotting (FIG. 1). Infectivity assays were imaged on an automated fluorescence microscope Leica DMIR (FIG. 4). Numbers and average sizes of the SCV as well as host cell numbers were determined via GroEL and DAPI staining and images were analysed and quantified using FIJI (ImageJ) and Excel (Microsoft).
In this progeny assay, bacteria are first grown in Hela299 cells treated with inhibitors (compound 20 at a concentration of 50 and 75 μM) and the infectious particles from this primary infection are applied to fresh cells in the absence of inhibitor to measure the bacterial load (GroEL immunoblot) and inclusion formation (immunofluorescence microscopy).

[3] = system: Chlamydia trachomatis (Ctr) strain L2/434/Bu; test: Chlamydia trachomatis (Ctr) infectivity assay, HSP60 immunoblot of primary and progeny infection in HeLa229 cells
Excerpt: as §1
Compound application during Ctr infection. HeLa229 cells were pretreated with compound 20 in concentrations of 25, 50 and 75 μM for 30 min until Ctr (MOI1) were added to the cells. Compound 20 was present during infection.
Cells with primary infection were lysed 24 h post infection (hpi). To obtain progeny infection compound treated cells were lysed 48 hpi and lysate was used to infect fresh HeLa229 cells. Progeny infection was lysed 24 hpi and analyzed together with primary infection samples by immunoblot. Chlamydial growth was detected with antibodies against chlamydial HSP60 protein and Actin was used as loading control (FIG. 6).

| SMILES | protection against Ctr progeny infection at 75 μM (in words) [1] | inhibition at 25 µM [1] | inhibition at 75 µM [1] | effect on Sn progeny infection ([2]; HeLa cells, 50 and 75 μM, GroEL immunoblot, relative inclusion number) | effect on Sn primary infection ([2]; HeLa cells, 50 and 75 μM, relative inclusion size, fluorescence microscopy) | concentration of maximal inhibition of Sn replication ([2]; HeLa cells, FIGS. 1, 2, 3 and 4) | subcellular structure of Sn inclusions by transmission electron microscopy ([2]; infected HeLa cells, versus DMSO-treated control) | effect on Ctr progeny infection at 50 μM ([3]; 50 μM, HSP60 immunoblot) | effect on Ctr progeny infection at 75 μM ([3]; 75 μM, HSP60 immunoblot) | effect on chlamydial development (primary Ctr infection) ([3]; 25, 50 and 75 μM, HSP60 immunoblot 24 hpi) | protection against Ctr progeny infection at 25 μM (in words) [1] |
| --- | --- | --- | --- | --- | --- | --- | --- | --- | --- | --- | --- |
| C[C@@H]1[C@@H](NCc2ccc(I)cc2)C[C@H]2C[C@@H]1C2(C)C [VP390, (1S,2S,3S,5R)-N-(4-iodobenzyl)-2,6,6-trimethylbicyclo[3.1.1]heptan-3-amine] | full protection | 91.8% | 100% |  |  |  |  |  |  |  |  |
| COc1ccc(Br)cc1CNC12CC3CC(CC(C3)C1)C2 [Compound 20, (3S,5S,7S)-N-(5-bromo-2-methoxybenzyl)adamantan-1-amine] |  | 19.9% | 75.7% | inhibitor effect; also recorded: inhibits | inhibitor effect; also recorded: inhibits | 75 µM | dramatically smaller and less sub-vacuoles and just few bacteria; also recorded: the number of Sn inclusions is reduced and the vacuole size is much reduced | strongly reduced amounts of Ctr in the progeny | totally blocked progeny infection | slight inhibitory effect |  |
| COc1ccc(Br)cc1CNC12CC3CC(C)(CC(C)(C3)C1)C2 [RN-2-103, (1R,3R,5S,7R)-N-(5-bromo-2-methoxybenzyl)-3,5-dimethyladamantan-1-amine] | full protection | 66.9% | 100% |  |  |  |  |  |  |  |  |
| O=C(Nc1ccc(S(=O)(=O)Nc2nccs2)cc1)C12CC3CC(CC(C3)C1)C2 [m3, (3R,5R,7R)-N-(4-(N-(thiazol-2-yl)sulfamoyl)phenyl)adamantane-1-carboxamide] |  | 46.9% | 87.8% |  |  |  |  |  |  |  |  |
| COc1ccc(I)cc1CN[C@H]1C[C@H]2C[C@@H]([C@@H]1C)C2(C)C [VP386, (1S,2S,3S,5R)-N-(5-iodo-2-methoxybenzyl)-2,6,6-trimethylbicyclo[3.1.1]heptan-3-amine] | full protection | 100% | 100% |  |  |  |  |  |  |  | full protection |
| O=C(CC12CC3CC(CC(C3)C1)C2)N/N=C/c1ccc([N+](=O)[O-])o1 [m9, 2-((3R,5R,7R)-adamantan-1-yl)-N′-((E)-(5-nitrofuran-2-yl)methylene)acetohydrazide] | full protection | 100% | 100% |  |  |  |  |  |  |  | full protection |
| COc1ccc(Br)cc1CN[C@H]1C[C@H]2C[C@@H]([C@@H]1C)C2(C)C [VP332, (1S,2S,3S,5R)-N-(5-bromo-2-methoxybenzyl)-2,6,6-trimethylbicyclo[3.1.1]heptan-3-amine] | full protection | 100% | 100% |  |  |  |  |  |  |  | full protection |
| O=C(N/N=C/c1cccc([N+](=O)[O-])c1)NC12CC3CC(CC(C3)C1)C2 [m4, N-((3S,5S,7S)-adamantan-1-yl)-2-((E)-3-nitrobenzylidene)hydrazine-1-carboxamide] |  | 22.8% | 81.6% |  |  |  |  |  |  |  |  |

From patent US20160310448A1, “Adamantane or Pinene Derivatives for Use in the Treatment of Chlamydiales Infections” (Commissariat a l'Energie Atomique et aux Energies …, priority 2015, published 2016)
